Experimental data: BindingDB's records for doi:10.1021/jm0504499 (Universit&#224, 2005)

Columns and labels:
[1] = target: Metabotropic glutamate receptor 2 (Rattus norvegicus) (UniProt P31421); assay: Binding affinity for mGluR2 receptor expressed in CHO cells
[2] = target: Metabotropic glutamate receptor 2 (Rattus norvegicus) (UniProt P31421); assay: Effective concentration against mGluR2 receptor expressed in CHO cells

Chain of Metabotropic glutamate receptor 2 (Rattus norvegicus) (P31421 whole entry, looked up): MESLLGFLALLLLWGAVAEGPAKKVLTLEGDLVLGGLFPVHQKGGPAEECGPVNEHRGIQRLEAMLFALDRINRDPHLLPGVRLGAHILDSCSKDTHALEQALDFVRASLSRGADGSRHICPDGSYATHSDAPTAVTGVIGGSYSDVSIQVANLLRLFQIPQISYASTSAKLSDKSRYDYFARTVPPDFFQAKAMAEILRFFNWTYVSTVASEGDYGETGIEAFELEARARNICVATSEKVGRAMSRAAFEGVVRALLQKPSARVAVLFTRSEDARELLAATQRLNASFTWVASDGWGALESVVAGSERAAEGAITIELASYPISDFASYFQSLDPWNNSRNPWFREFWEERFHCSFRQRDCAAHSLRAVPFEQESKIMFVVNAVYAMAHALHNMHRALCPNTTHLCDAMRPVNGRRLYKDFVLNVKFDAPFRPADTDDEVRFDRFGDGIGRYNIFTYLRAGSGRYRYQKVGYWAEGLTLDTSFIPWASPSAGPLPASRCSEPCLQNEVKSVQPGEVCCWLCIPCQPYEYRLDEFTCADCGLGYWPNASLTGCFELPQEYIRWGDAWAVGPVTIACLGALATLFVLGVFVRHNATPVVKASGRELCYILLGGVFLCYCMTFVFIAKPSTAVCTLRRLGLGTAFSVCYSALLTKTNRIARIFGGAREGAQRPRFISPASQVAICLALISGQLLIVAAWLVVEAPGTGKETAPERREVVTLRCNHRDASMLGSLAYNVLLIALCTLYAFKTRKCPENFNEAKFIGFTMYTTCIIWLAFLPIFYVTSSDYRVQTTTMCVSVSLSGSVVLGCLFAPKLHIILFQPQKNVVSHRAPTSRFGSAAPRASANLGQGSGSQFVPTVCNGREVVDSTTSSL

Ki [1]: > 1 mM | EC50 [2]: > 1 mM
SMILES: N[C@@H](C[C@H]1CC(C(=O)O)=NO1)C(=O)O [5-(2-Amino-2-carboxy-ethyl)-4,5-dihydro-isoxazole-3-carboxylic acid]
